Our source for the IC50 values is patent US20250313556A1, “CERTAIN CHEMICAL ENTITIES, COMPOSITIONS, AND METHODS” (MRJA THERAPEUTICS, INC., priority 2022, published 2025).

pIC50: −log10 of the molar value. Where only a bound is given, the exact number is not on record here.

This assay has as its target c-KIT (Homo sapiens, UniProt P10721). As to the kind of experiment: c-KIT ADP-Glo biochemical assay. On the procedure:
The inhibitory activity against c-KIT was measured using ADP-Glo assay. The percent (%) inhibition at each concentration of compound is calculated based on and relative to the luminescence signal in the Max and Min control wells contained within each assay plate. The Max control wells contain enzyme and substrate as 0% inhibition, and the Min control wells only contain substrate without enzyme as 100% inhibition. The concentrations and % inhibition values for tested compounds are plotted and the concentration of compound required for 50% inhibition (IC50) is determined with a four-parameter logistic dose response equation. The ability of the compounds in Table 1 to inhibit c-KIT was determined.
(In general: ADP-Glo turns the ADP formed in a reaction into a luminescent signal.)

Chain of c-KIT (P10721 26-976): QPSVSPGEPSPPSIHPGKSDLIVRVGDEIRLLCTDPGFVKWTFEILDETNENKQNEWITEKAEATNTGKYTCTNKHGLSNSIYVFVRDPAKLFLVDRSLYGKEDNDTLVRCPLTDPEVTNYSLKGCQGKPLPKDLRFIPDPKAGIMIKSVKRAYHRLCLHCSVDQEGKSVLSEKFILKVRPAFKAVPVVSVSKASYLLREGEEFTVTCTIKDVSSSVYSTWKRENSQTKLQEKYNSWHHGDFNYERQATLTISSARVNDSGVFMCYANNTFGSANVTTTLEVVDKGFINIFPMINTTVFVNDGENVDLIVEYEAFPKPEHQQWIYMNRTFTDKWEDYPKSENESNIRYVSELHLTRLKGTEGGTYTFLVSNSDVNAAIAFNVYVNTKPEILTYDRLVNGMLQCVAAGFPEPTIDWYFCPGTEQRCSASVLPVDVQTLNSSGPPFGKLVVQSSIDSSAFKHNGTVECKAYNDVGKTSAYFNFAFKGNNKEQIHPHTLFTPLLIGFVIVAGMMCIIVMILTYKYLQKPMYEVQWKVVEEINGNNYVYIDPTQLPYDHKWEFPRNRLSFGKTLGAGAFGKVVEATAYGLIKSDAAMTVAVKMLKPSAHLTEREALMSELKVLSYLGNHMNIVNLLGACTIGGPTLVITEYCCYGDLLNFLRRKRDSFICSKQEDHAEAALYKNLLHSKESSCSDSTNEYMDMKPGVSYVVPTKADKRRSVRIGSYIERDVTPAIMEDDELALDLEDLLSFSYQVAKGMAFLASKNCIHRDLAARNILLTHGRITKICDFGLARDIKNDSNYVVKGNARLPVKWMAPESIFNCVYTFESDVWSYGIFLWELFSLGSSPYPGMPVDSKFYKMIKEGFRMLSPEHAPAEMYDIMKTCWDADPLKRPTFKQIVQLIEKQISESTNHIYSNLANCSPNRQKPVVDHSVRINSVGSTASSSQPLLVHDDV

The term pIC50 denotes the IC50 on a negative log10 scale, so that one unit is a factor of ten. Lower therefore signals a high IC50. Under “class ranges”, `COC(=O)N1CC(c2noc(-c3cc(F)c(C)c(NC(=O)c4cnc5ccccn45)c3)n2)C1` [Compound C037, methyl 3-(5-(3-fluoro-5-(imidazo[1,2-a]pyridine-3-carboxamido)-4-methylphenyl)-1,2,4-oxadiazol-3-yl)azetidine-1-carboxylate] showed a pIC50 of 6.00 to 7.00.
Same read-out and setting: under `COC(=O)N1CC[C@H](c2nc(-c3cc(F)c(C)c(NC(=O)c4cnc5ccccn45)c3F)no2)C1` [Compound C055, methyl (S)-3-(3-(2,5-difluoro-3-(imidazo[1,2-a]pyridine-3-carboxamido)-4-methylphenyl)-1,2,4-oxadiazol-5-yl)pyrrolidine-1-carboxylate] stands 6.00 to 7.00.
With `Cc1c(F)cc(-c2noc([C@H]3C[C@@H]3F)n2)cc1NC(=O)c1cnc2cc(N3CCNCC3)ccn12` (racemic) [Compound C022, N-(3-fluoro-5-(5-((1R,2S)-2-fluorocyclopropyl)-1,2,4-oxadiazol-3-yl)-2-methylphenyl)-7-(piperazin-1-yl)imidazo[1,2-a]pyridine-3-carboxamide], for the setting “class ranges”, the pIC50 is 4.70 to 6.00.
Turning to `COC(=O)N1CC(c2nc(-c3cc(F)c(C)c(NC(=O)c4cnc5ccc(Cl)cn45)c3)no2)C1` [Compound C012, methyl 3-(3-(3-(6-chloroimidazo[1,2-a]pyridine-3-carboxamido)-5-fluoro-4-methylphenyl)-1,2,4-oxadiazol-5-yl)azetidine-1-carboxylate], the pIC50 (class ranges) was 6.00 to 7.00.
On the same count and under the same terms, under `COC(=O)N1CC(c2nc(-c3cc(F)c(C)c(NC(=O)c4cnc5ccc(F)cn45)c3)no2)C1` [Compound C019, methyl 3-(3-(3-fluoro-5-(6-fluoroimidazo[1,2-a]pyridine-3-carboxamido)-4-methylphenyl)-1,2,4-oxadiazol-5-yl)azetidine-1-carboxylate] stands 6.00 to 7.00; under `Cc1c(F)cc(-c2noc([C@H]3C[C@@H]3F)n2)cc1NC(=O)c1cnc2ccc(N3CCNCC3)cn12` (racemic) [Compound C026, N-(3-fluoro-5-(5-((1R,2S)-2-fluorocyclopropyl)-1,2,4-oxadiazol-3-yl)-2-methylphenyl)-6-(piperazin-1-yl)imidazo[1,2-a]pyridine-3-carboxamide], 6.00 to 7.00; under `COC(=O)N1CC(c2nc(-c3cc(F)c(C)c(NC(=O)c4cnc5ccc(N6CCNCC6)cn45)c3)no2)C1` [Compound C020, methyl 3-(3-(3-fluoro-4-methyl-5-(6-(piperazin-1-yl)imidazo[1,2-a]pyridine-3-carboxamido)phenyl)-1,2,4-oxadiazol-5-yl)azetidine-1-carboxylate], 4.70 to 6.00.
Still for that read-out and setting: the result for `COC(=O)N1CC(c2nc(-c3cc(F)c(C)c(NC(=O)c4cnc5ccccn45)c3)co2)C1` [Compound C045, methyl 3-(4-(3-fluoro-5-(imidazo[1,2-a]pyridine-3-carboxamido)-4-methylphenyl)oxazol-2-yl)azetidine-1-carboxylate] reads 6.00 to 7.00; that for `Cc1c(F)cc(-c2noc([C@H]3C[C@H]3F)n2)cc1NC(=O)c1cnn2ccccc12` (racemic) [Compound C005], 6.00 to 7.00.
On the same count and under the same terms, under `Cc1c(F)cc(-c2noc([C@H]3C[C@@H]3F)n2)cc1NC(=O)c1cnc2cc(N3CCOCC3)ccn12` [Compound C014, N-(3-fluoro-5-(5-((1R,2S)-2-fluorocyclopropyl)-1,2,4-oxadiazol-3-yl)-2-methylphenyl)-7-morpholinoimidazo[1,2-a]pyridine-3-carboxamide] stands 6.00 to 7.00; under `COC(=O)N1CC(c2nc(-c3cc(F)c(C)c(NC(=O)c4cnc5ccc(N6CCN(C)CC6)cn45)c3)no2)C1` [Compound C028, methyl 3-(3-(3-fluoro-4-methyl-5-(6-(4-methylpiperazin-1-yl)imidazo[1,2-a]pyridine-3-carboxamido)phenyl)-1,2,4-oxadiazol-5-yl)azetidine-1-carboxylate], 6.00 to 7.00; under `Cc1c(F)cc(-c2noc(C3CC(F)(F)C3)n2)cc1NC(=O)c1cnc2cc(N3CCNCC3)ccn12` [Compound C010, N-(5-(5-(3,3-difluorocyclobutyl)-1,2,4-oxadiazol-3-yl)-3-fluoro-2-methylphenyl)-7-(piperazin-1-yl)imidazo[1,2-a]pyridine-3-carboxamide], 6.00 to 7.00.
`COC(=O)N1CC(c2ncc(-c3cc(F)c(C)c(NC(=O)c4cnc5ccccn45)c3)o2)C1` [Compound C046, methyl 3-(5-(3-fluoro-5-(imidazo[1,2-a]pyridine-3-carboxamido)-4-methylphenyl)oxazol-2-yl)azetidine-1-carboxylate]: for the setting “class ranges”, the pIC50 is 4.70 to 6.00.
As to `COC(=O)N1CC(c2nc(-c3cc(F)c(C)c(NC(=O)c4cnc5ccc(C)cn45)c3)no2)C1` [Compound C021, methyl 3-(3-(3-fluoro-4-methyl-5-(6-methylimidazo[1,2-a]pyridine-3-carboxamido)phenyl)-1,2,4-oxadiazol-5-yl)azetidine-1-carboxylate], the pIC50 (class ranges) is 6.00 to 7.00.
On the same count and under the same terms, under `CNC(=O)N1CC(c2nc(-c3cc(F)c(C)c(NC(=O)c4cnc5ccccn45)c3)no2)C1` [Compound C032, N-(3-fluoro-2-methyl-5-(5-(1-(methylcarbamoyl)azetidin-3-yl)-1,2,4-oxadiazol-3-yl)phenyl)imidazo[1,2-a]pyridine-3-carboxamide] stands 4.70 to 6.00; under `COC(=O)N1CC(c2nc(-c3cc(F)c(C)c(NC(=O)c4cnc5cc(N6CCOCC6)ccn45)c3)no2)C1` [Compound C015, methyl 3-(3-(3-fluoro-4-methyl-5-(7-morpholinoimidazo[1,2-a]pyridine-3-carboxamido)phenyl)-1,2,4-oxadiazol-5-yl)azetidine-1-carboxylate], at least 7.00; under `COC(=O)N1CCC[C@H](c2nc(-c3cc(F)c(C)c(NC(=O)c4cnc5ccccn45)c3F)no2)C1` [Compound C056, methyl (S)-3-(3-(2,5-difluoro-3-(imidazo[1,2-a]pyridine-3-carboxamido)-4-methylphenyl)-1,2,4-oxadiazol-5-yl)piperidine-1-carboxylate], 6.00 to 7.00.
Still for that read-out and setting: the result for `COC(=O)N1CC(c2nc(-c3cc(F)c(C)c(NC(=O)c4cnc5cc(F)ccn45)c3)no2)C1` [Compound C024, methyl 3-(3-(3-fluoro-5-(7-fluoroimidazo[1,2-a]pyridine-3-carboxamido)-4-methylphenyl)-1,2,4-oxadiazol-5-yl)azetidine-1-carboxylate] reads 6.00 to 7.00.
On the same count and under the same terms, under `Cc1c(F)cc(-c2noc(C3CN(C(=O)OC4CC4)C3)n2)cc1NC(=O)c1cnc2ccccn12` [Compound C031, cyclopropyl 3-(3-(3-fluoro-5-(imidazo[1,2-a]pyridine-3-carboxamido)-4-methylphenyl)-1,2,4-oxadiazol-5-yl)azetidine-1-carboxylate] stands 4.70 to 6.00.
Compound `COC(=O)N1CC(c2nc(-c3ccc(C)c(NC(=O)c4cnc5ccccn45)c3)no2)C1` [methyl 3-(3-(3-(imidazo[1,2-a]pyridine-3-carboxamido)-4-methylphenyl)-1,2,4-oxadiazol-5-yl)azetidine-1-carboxylate, reference compound] had a pIC50 (comparison of prior art compounds (WO 2013/033167) with example 3 (C003)) of 6.77.
`Cc1c(F)cc(-c2noc(C3CC(F)(F)C3)n2)cc1NC(=O)c1cnc2ccc(N3CCN(C)CC3)cn12` [Compound C033, N-(5-(5-(3,3-difluorocyclobutyl)-1,2,4-oxadiazol-3-yl)-3-fluoro-2-methylphenyl)-6-(4-methylpiperazin-1-yl)imidazo[1,2-a]pyridine-3-carboxamide]: for the setting “class ranges”, the pIC50 was 6.00 to 7.00.
